Reference: paper PMC6966912, “Inverted Binding of Non-natural Substrates in Strictosidine Synthase Leads to a Switch of Stereochemical Outcome in Enzyme-Catalyzed Pictet–Spengler Reactions” (Journal of the American Chemical Society, 2020)

B1: OpSTR (strictosidine synthase from Ophiorrhiza pumila) (Ophiorrhiza pumila) (protein)
chain: SPEFFEFIEAPSYGPNAYAFDSDGELYASVEDGRIIKYDKPSNKFLTHAVASPIWNNALCENNTNQDLKPLCGRVYDFGFHYETQRLYIADCYFGLGFVGPDGGHAIQLATSGDGVEFKWLYALAIDQQAGFVYVTDVSTKYDDRGVQDIIRINDTTGRLIKYDPSTEEVTVLMKGLNIPGGTEVSKDGSFVLVGEFASHRILKYWLKGPKANTSEFLLKVRGPGNIKRTKDGDFWVASSDNNGITVTPRGIRFDEFGNILEVVAIPLPYKGEHIEQVQEHDGALFVGSLFHEFVGILHNYKSSVDHHQEKNSGGLNASFKEFSSF
notes: N-terminal signal peptide removed for improved expression

Tests used:
[1] = target: T1, OpSTR (strictosidine synthase from Ophiorrhiza pumila) (Ophiorrhiza pumila, UniProt Q94LW9); assay: X-ray crystal structure (cocrystallization with racemate); assay type: binding; parameters: gene str; N-terminal signal peptide removed for improved expression; conditions: active site, near Glu276
[2] = target: T1, OpSTR (strictosidine synthase from Ophiorrhiza pumila); assay: biochemical; parameters: gene str
[3] = substrate: CC(C)CC=O; assay: enzyme kinetics of Pictet-Spengler reaction; assay type: biochemical, Ophiorrhiza pumila; conditions: co-substrate tryptamine

| Molecule | X-ray crystal structure (cocrystallization with racemate) [1] | IC50 [2] | also measured |
| --- | --- | --- | --- |
| CC[C@@H]1NCCc2c1[nH]c1ccccc21 [3c, (S)-3c] | exclusively the (S)-enantiomers of 3a–c were identified in the active site of OpSTR |  |  |
| C[C@@H]1NCCc2c1[nH]c1ccccc21 [(S)-3d] |  | 1.6 ± 0.1 mM |  |
| CCC[C@@H]1NCCc2c1[nH]c1ccccc21 [3b, (S)-3b] | exclusively the (S)-enantiomers of 3a–c were identified in the active site of OpSTR |  |  |
| CC1NCCc2c1[nH]c1ccccc21 (racemic) [rac-3d] |  | 3.4 ± 0.3 mM |  |
| CC(C)C[C@@H]1NCCc2c1[nH]c1ccccc21 [3a, (S)-3a] | exclusively the (S)-enantiomers of 3a–c were identified in the active site of OpSTR |  |  |
| B1 |  |  | Km [3]: 5.36 ± 0.83 mM |
